From patent US11566233B2, “Three-dimensional in vitro lung model, process for preparing said model, and its use for determining and /or predicting the sensitizing effects of inhalable products” (LUXEMBOURG INSTITUTE OF SCIENCE AND TECHNOLOGY, priority 2016, dated 2023)
Like-named read-outs stand apart in the source and are kept apart here.

Columns and labels:
[1] = test system: THP-1 cells in the tetraculture lung model; experiment: Flow cytometry of cell surface marker expression on THP-1 cells in the tetraculture lung model; type: cell-based, human; conditions: 24 h exposure, compared to control
Description: 24 h and 48 h after exposure to the Vitrocell Cloud, THP-1 DC were recovered in the medium in the well. After centrifugation for 5 minutes at 300 g, cells were washed with PBS and staining was performed using antibodies listed in table 1 below (following the manufacturer's recommended dilutions) and the corresponding isotype control to determine the unspecific binding of the antibody and ensure the observed staining is due to specific binding rather than an artifact.
Relative Fluorescence Intensity (RFI) was used as an indicator of OX40L, IL7ra, CD40 and CD86 and CD54 expression and was calculated by the following formula I: […]
(§1) To measure the expression of cell surface markers and the release of different cytokines, the cells of inserts prepared according to example 1 above were exposed to the CV75 or, when it was not possible to reach 75% of viability, cells were exposed to the maximum of solubility of the compounds.
(§2) After 24 h and 48 h, THP-1 cells were recovered, stained and analysed using a flow cytometer according to the protocol detailed in example 2 above. Supernatants were recovered for cytokines measurements.

[2] = test system: THP-1 cells in monoculture; experiment: Cell surface marker expression on THP-1 cells in monoculture, submerged conditions (h-CLAT reproduction); type: cell-based, human; conditions: 24 h exposure
Text: In parallel, THP-1 cells were exposed in submerged conditions in monoculture in order to reproduce the data obtained using the h-CLAT (human cell line activation test) assay. The h-CLAT assay is based on the property of chemicals to activate dendritic cells, property which is common to both skin and respiratory sensitizers. The h-CLAT is an in vitro model validated at the European level (ECVAM validation).
On a comparative purpose, the expression of CD86 and CD54 cell surface markers were also evaluated in the h-CLAT. It is currently recommended to use the h-CLAT to assess the skin sensitizing potential of chemicals. As skin and lung share the DC activation property, h-CLAT may be considered to be used to assess also the respiratory sensitizing potential of chemicals. To remind, there is no validated models to assess respiratory sensitization available on the market yet.
As different antibodies, fluorochromes and equipment were used to measure the CDs expression, threshold level obtained in literature on the h-CLAT could not be compared to those measured in this example.

[3] = test system: tetraculture in vitro lung model; experiment: Cytokines released in the tetraculture in vitro lung model; type: cell-based, human; parameters: key: ?: indicates a decrease of cytokine release compared to the vehicle control; ?: indicates an increase of cytokine release compared to the vehicle control; =: indicates no change observed between exposure and the vehicle control; ?: indicates a decrease of cytokine release compared to the vehicle control; ?: indicates an increase of cytokine release compared to the vehicle control
Description: as §1, §2
Table 2 below gives a summary of the results obtained for all cytokines measured, wherein, ? indicates a decrease of cytokine release compared to the vehicle control, ? indicates an increase of cytokine release compared to the vehicle control and =indicates no change observed between exposure and the vehicle control: […]

[4] = test system: THP-1 cells in monoculture; experiment: Viability of THP-1 cells in monoculture in submerged conditions; type: cell-based, human; conditions: 24 h exposure, up to maximum of solubility in medium containing 0.2% of DMSO
Description: (§3) FIGS. 11A and 11B are diagrams showing viability of THP-1 cells after 24 h exposure to PA (FIG. 11A) and TMA (FIG. 11B) in monoculture in submerged conditions. In this figure, the highest tested concentrations represent the maximum of solubility of the compounds in medium containing 0.2% of DMSO.

[5] = Solubility in medium containing 0.2% of DMSO; type: physicochemical
Description: as §3

[6] = test system: tetraculture lung model (A549, EA.hy926, THP-1, Mϕ-THP-1); experiment: Alamar Blue viability of the tetraculture lung model after Vitrocell Cloud exposure at the air-liquid interface; conditions: 24 h and 48 h after exposure
Description: (§4) Example of exposure of the inserts is performed in a Vitrocell® Cloud device (Waldkirch, Germany), previously cleaned under sterile conditions, and maintained at 37° C. The inserts are placed into the device. A cloud, from 200 to 500 μL of the product to be tested) is then distributed homogenously inside the chamber and starts to settle on the surface. After about 10 to 30 minutes (depending on the injected product), the cloud is settled by single droplet sedimentation. The concentration which is deposited on the insert can be calculated in g/cm^2.
(§5) Inserts prepared according to example 1 were exposed to chemical compounds and to positive controls using the Vitrocell® Cloud system (Vitrocell, Waldkirch, Germany). All compounds were diluted in a 1/1(v/v) solution of sterile saline solution and PBS.
(§6) Inserts were exposed to a range of concentrations to chemical respiratory irritants and sensitizers in order to determine first the viability of the tissue using the Alamar Blue assay. […] Upon entering cells, resazurin is reduced to pink highly fluorescent resorufin. Viable cells continuously convert resazurin to resorufin. The fluorescence is proportional to cell viability.
(§7) Following 24 h and 48 h exposure to the compounds through the Vitrocell cloud, cells were incubated for 1 hour to 400 μM of Alamar Blue diluted in Coculture 1% medium.
(§8) Viability was assessed using the Alamar Blue assay 24 h and 48 h after exposure according to the protocol detailed in example 2 above.
(§9) The concentration leading to 25% of cytotoxicity (meaning 75% of viability: CV75) relatively compared to the vehicle control was determined using the graphs presented in example 2.

[7] = test system: tetraculture lung model (A549, EA.hy926, THP-1, Mϕ-THP-1)
Description: as §4, §5, §6, §7, §8, §9

Molecule | expression of cell surface marker CD54 on THP-1 cells [1] | expression of cell surface marker CD86 on THP-1 cells [1] | expression of cell surface marker IL7ra on THP-1 cells [1] | expression of CD54 on THP-1 cells [2] | RANTES release compared to the vehicle control ([3]; 24 h) | MCP-1 release compared to the vehicle control ([3]; 48 h) | expression of CD86 on THP-1 cells [2] | IL-7 release compared to the vehicle control ([3]; 24 h) | MCP-1 release compared to the vehicle control ([3]; 24 h) | IL-7 release compared to the vehicle control ([3]; 48 h) | IL-10 release compared to the vehicle control ([3]; 48 h) | cytotoxicity of THP-1 cells [4] | solubility [5] | cell viability of the alveolar tissue model (in words) [6] | cell viability of the alveolar tissue model (in words) [7]
C=CC=O [Acrolein] | no increase | no increase | decrease | increase | = | = |  |  |  |  |  |  |  |  | 
O=C(O)c1ccc2c(c1)C(=O)OC2=O [TMA, Trimellitic Anhydride] | Increases | Increases |  |  |  | = | lower than the vehicle control | = | = | = | = | not possible to reach any cytotoxity | low solubility | decrease in viability | 
O=C1OC(=O)c2ccccc21 [PA, Phthalic Anhydrid] | Increases | Increases |  |  |  |  |  | = | = | = |  | not possible to reach any cytotoxity | low solubility | decrease in viability | 
Bet v1: additional known protein sensitizer; important protein allergen of pollen (protein, UniProt P15494 2-160, looked up) Major pollen allergen Bet v …: GVFNYETETTSVIPAARLFKAFILDGDNLFPKVAPQAISSVENIEGNGGPGTIKKISFPEGFPFKYVKDRVDEVDHTNFKYNYSVIEGGPIGDTLEKISNEIKIVATPDGGSILKISNKYHTKGDHEVKAEQVKASKEMGETLLRAVESYLLAHSDAYN |  |  |  |  |  |  |  |  |  |  |  |  |  |  | No effect
